Test results reported in patent US8420630B2 (Boehringer Ingelheim Pharma GmbH & Co. KG, priority 2001, dated 2013).
Structures can show the parent of a compound that is named as a salt.

What follows are molecules tested against T1, CDK1/cyclinB1 (Homo sapiens, UniProt P06493) (assay: Cyclin B1-CDK1 kinase inhibition test). Details: CDK1 tests (Example 13); recombinant cyclin B1/CDK1, substrate histone H1; read-out: CDK1/cyclinB1 IC50 value.
T1 construct: made in house; host or cells: High Five insect cells (Trichoplusia ni), baculovirus coinfection
T1 sequence (P06493 whole entry): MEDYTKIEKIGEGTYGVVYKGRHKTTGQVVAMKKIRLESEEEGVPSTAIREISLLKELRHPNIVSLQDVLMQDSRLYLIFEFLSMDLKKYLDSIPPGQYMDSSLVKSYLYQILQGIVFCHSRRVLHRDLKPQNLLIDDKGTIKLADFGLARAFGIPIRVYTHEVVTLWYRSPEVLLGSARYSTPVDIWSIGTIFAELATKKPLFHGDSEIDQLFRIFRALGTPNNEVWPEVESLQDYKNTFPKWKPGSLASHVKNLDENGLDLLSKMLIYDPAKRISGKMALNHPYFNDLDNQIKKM
T1 sequence (P14635 whole entry partner): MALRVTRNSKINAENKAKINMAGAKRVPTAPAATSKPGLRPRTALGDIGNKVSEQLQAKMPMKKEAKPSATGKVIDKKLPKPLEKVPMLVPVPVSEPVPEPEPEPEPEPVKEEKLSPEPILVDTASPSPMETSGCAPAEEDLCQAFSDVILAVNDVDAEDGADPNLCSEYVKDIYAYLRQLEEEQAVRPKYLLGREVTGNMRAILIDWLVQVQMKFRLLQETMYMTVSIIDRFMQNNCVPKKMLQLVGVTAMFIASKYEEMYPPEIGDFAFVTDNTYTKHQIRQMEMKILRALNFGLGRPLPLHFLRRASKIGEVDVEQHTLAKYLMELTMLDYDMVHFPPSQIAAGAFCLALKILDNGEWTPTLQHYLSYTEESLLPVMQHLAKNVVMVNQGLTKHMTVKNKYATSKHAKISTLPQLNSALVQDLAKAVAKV
Type: biochemical
Experimental: CDK4) were cloned by standard methods using RT-PCR, and cloned into a transfer vector (cyclin in pAcG2T made by Pharmingen, CDKs in p2Bac made by Invitrogen) for the baculovirus system. […] After thawing the cells were resuspended in lysing buffer (50 mM HEPES pH 7.5, 10 mM MgCl2, 1 mM DTT, 5 μg/ml leupeptin, 5 μg/ml aprotinin, 100 μM NaF, 100 μM PMSF, 10 mM β-glycerolphosphate, 100 μM Na3VO4, 30 mM nitrophenylphosphate, 17.5 ml of lysing buffer per 10^8 cells) and incubated on ice for 30 min. […] Cyclin D1-CDK4 was purified by means of a GST-tag on cyclin D1 and then using glutathione beads (total protein about 0.2 mg/ml). All the kinase tests were carried out in 96-well microtitre plates (Greiner PS) in a final volume of 60 μl. […] As a negative control the kinase reaction was carried out in the absence of the substrate histone H1. As a positive control the kinase reaction was carried out in the absence of a test substance. As an internal control 30 μM and 300 μM (final concentration) of the kinase inhibitor olomoucin (Alexis) were used. […] The kinase reaction is started by the addition of 10 μl of ATP mix (0.045 mM ATP, 0.5 μCi ^33P-ATP in kinase buffer) and incubated for 30 min at 30° C. and 600 rpm in a shaking incubator. After incubation the plates were placed on ice and the proteins were precipitated by the addition of 125 μl of ice-cold 5% trichloroacetic acid. After 15 min on ice the precipitates were transferred onto Packard Unifilter 96 GF/B plates with the Packard Harvester System, and collected by vacuum filtration. The precipitates were washed 4 times with dist. H2O at ambient temperature. The filter plates were then dried at 60° C. and 50 μl of scintillation liquid were added to each well (Ultima Gold, Packard). The plate was sealed up with Sealing Tape and after 1 h measured in a scintillation measuring apparatus (Micro Beta made by Wallac).

IC50, < 100 nM:
O=C1CCCN1CCCNc1nc(Nc2ccc(Cl)c(Cl)c2)ncc1Br [Example 1(661), 1-{3-[5-Bromo-2-(3,4-dichloro-phenylamino)-pyrimidin-4-ylamino]-propyl}-pyrrolidin-2-one]
CC(=O)NCCNc1nc(Nc2cccc(Br)c2)ncc1C(F)(F)F [Example 2(012), 2-(3-bromo-phenylamino)-4-(2-acetylamino-ethylamino)-5-trifluoromethyl-pyrimidine]
FC(F)(F)c1cnc(Nc2ccc(Br)cc2)nc1N1CCc2[nH]cnc2C1 [Example 1(019), 2-(4-bromo-phenylamino)-4-(1,4,6,7-tetrahydro-imidazo[4,5-c]pyridin-5-yl)-5-trifluoromethyl-pyrimidine]
O=C1CCCN1CCCNc1nc(Nc2ccc(CO)cc2)ncc1C(F)(F)F [Example 2(052), 1-{3-[2-(4-Hydroxymethyl-phenylamino)-5-trifluoromethyl-pyrimidin-4-ylamino]-propyl}-pyrrolidin-2-one]
O=C(O)CCc1ccc(Nc2ncc(C(F)(F)F)c(N3CCc4[nH]cnc4C3)n2)cc1 [Example 1(023), 2-(4-(2-carboxy-1-ethyl-)phenylamino)-4-(1,4,6,7-tetrahydro-imidazo[4,5-c]pyridin-5-yl)-5-trifluoromethyl-pyrimidine]
NC1CCCC(Nc2nc(Nc3cc(Cl)cc(Cl)c3)ncc2C(F)(F)F)C1 (stereo not drawn) [Example 1(020), 2-(3,5-dichloro-phenylamino)-4-(3-amino-cyclohexylamino)-5-trifluoromethyl-pyrimidine]
NCC1CCC(CNc2nc(Nc3ccc(Cl)cc3)ncc2C(F)(F)F)CC1 (stereo not drawn) [Example 1(107), 2-(4-chloro-phenylamino)-4-(4-aminomethyl-cyclohexylmethylamino)-5-trifluoromethyl-pyrimidine]
CC(=O)NCC(C)(C)Nc1nc(Nc2ccc(S(=O)(=O)N3CCOCC3)cc2)ncc1C(F)(F)F [Example 1(585), N-(2-Methyl-2-{2-[4-(morpholin-4-sulphonyl)-phenylamino]-5-trifluoromethyl-pyrimidin-4-ylamino}-propyl)-acetamide]
CNC(=O)c1ccc(Nc2ncc(C(F)(F)F)c(NCCNC(C)=O)n2)cc1Cl [Example 8(003), 4-[4-(2-acetylamino-ethylamino)-5-trifluoromethyl-pyrimidin-2-ylamino]-2-chloro-N-methyl-benzamide]
O=C1CCCN1CCCNc1nc(Nc2ccc3[nH]cnc3c2)ncc1C(F)(F)F [Example 2(037), 1-{3-[2-(1H-Benzimidazol-5-ylamino)-5-trifluoromethyl-pyrimidin-4-ylamino]-propyl}-pyrrolidin-2-one]
CC(=O)NCCNc1nc(Nc2ccc3c(cnn3C)c2)ncc1C(F)(F)F [Example 1(655), N-{2-[2-(1-methyl-1H-indazol-5-ylamino)-5-trifluoromethyl-pyrimidin-4-ylamino]-ethyl}-acetamide]
CC(=O)NCCNc1nc(Nc2ccc(Cl)c(Cl)c2)ncc1C(F)(F)F [Example 2(003), 2-(3,4-dichlorophenylamino)-4-(2-acetylamino-ethylamino)-5-trifluoromethyl-pyrimidine-hydrochloride]
Cc1cnc(Nc2ccc3cn[nH]c3c2)nc1NCCCN1CCCC1=O [Example 2(075), 1-{3-[2-(1H-indazol-6-ylamino)-5-methyl-pyrimidin-4-ylamino]-propyl}-pyrrolidin-2-one]
O[C@H]1CC[C@@H](Nc2nc(Nc3ccc(Cl)c(Cl)c3)ncc2C(F)(F)F)CC1 [Example 1(037), 2-(3,4-dichloro-phenylamino)-4-(cis-4-hydroxy-cyclohexylamino)-5-trifluoromethyl-pyrimidine]
O=[N+]([O-])c1ccc(Nc2ncc([N+](=O)[O-])c(N3CCc4[nH]cnc4C3)n2)cc1 [Example 1(027), 2-(4-nitro-phenylamino)-4-(1,4,6,7-tetrahydro-imidazo[4,5-c]pyridin-5-yl)-5-nitro-pyrimidine]
